# Patent US11072601B2, “μ-opioid receptor agonist and preparation method therefor and use thereof in field of medicine” (SHANGHAI SYNERGY PHARMACEUTICAL SCIENCES CO., LTD., priority 2017, dated 2021)
# Legend:
# [1] = molecular target: T1, cAMP pathway of MOR receptor (Homo sapiens, UniProt P35372); assay: cell-based; conditions: cAMP Hunter HEK293 cells, forskolin-induced cAMP; read-out: EC50 of cAMP levels affected by agonistic effect on MOR
# T1 construct: host or cells: HEK293 (cAMP Hunter cell line)
# T1 sequence (P35372 whole entry): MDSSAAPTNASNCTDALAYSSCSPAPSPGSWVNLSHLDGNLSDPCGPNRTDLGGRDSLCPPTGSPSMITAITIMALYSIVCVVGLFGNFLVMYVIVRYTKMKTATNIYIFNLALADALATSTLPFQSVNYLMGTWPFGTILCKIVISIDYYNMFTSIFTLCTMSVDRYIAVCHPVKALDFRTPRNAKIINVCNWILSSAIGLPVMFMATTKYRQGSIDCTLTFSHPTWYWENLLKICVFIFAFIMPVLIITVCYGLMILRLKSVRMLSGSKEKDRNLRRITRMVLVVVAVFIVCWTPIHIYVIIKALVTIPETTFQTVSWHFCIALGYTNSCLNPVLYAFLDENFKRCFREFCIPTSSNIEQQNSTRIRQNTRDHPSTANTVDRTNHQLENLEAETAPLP
# Excerpt: The purpose of this experiment was to test the agonistic effect of the compounds of the invention on the cAMP pathway of MOR and to evaluate the in vitro activity of the compounds according to EC50.
# In this experiment, HitHunter cAMP Assay EFC technology of DiscoverX was used to measure the cAMP level in cells and monitor the functional status of G-protein coupled receptors (GPCRs).
# The amount of signal produced was directly proportional to the amount of cAMP in the cell.
# The MOR receptor was bound to the inhibitory Gαi protein, so forskolin (for inducing cAMP signal) was used to induce cAMP expression in the experiment, and the inhibitory effect of the compounds on the above induction was measured.
# The cAMP Hunter cell line (HEK293, DiscoverX) was removed from the freezer and expanded according to the Cell Standard Operating Procedure (SOP), 20 μL was collected and inoculated into a 384-well microplate and incubated at 37° C. overnight.
# The HitHunter cAMP Assay test kit (DiscoverX, 90-0075sm) was used, the kit contained cAMP buffer, cAMP detection solution, and cAMP working solution A.
# The formula was used to calculate the percentage of signal activity per well=100%×(1−(average RLU of the test samples−average RLU of the MAX controls)/(average RLU of the solvent controls−average RLU of the MAX controls)). wherein, the MAX control referred to the fluorescence signal value of the endorphin solution, and the solvent control referred to the fluorescence signal value of DMSO. The DiscoveRx CBIS data analysis workstation (ChemInnovation, CA) was used to perform statistical analysis of the percentage of signal activity and the concentration of the compounds by the agonist formula (comes with the software, universal) to calculate the EC50 value.
# [2] = molecular target: T2, β-arrestin signaling pathway of MOR (Homo sapiens, UniProt P35372); assay: cell-based; conditions: PathHunter HEK293 cells, relative to endorphin MAX control
# T2 construct: host or cells: HEK293 (PathHunter cell line)
# T2 sequence (P35372 whole entry): as above
# [3] = Pharmacokinetic test in rats, intravenous; format: in vivo; conditions: male, SD, rat, plasma, intravenous 1 mg/kg; for AUC: read-out: curve area (AUC); for half-life: read-out: half life (T½) (converted); for Cmax: read-out: plasma concentration (Cmax)
# Excerpt: 8-week-old male SD rats weighing 200-300 g were used as experimental animals, and LC/MS/MS method was used to determine the drug concentration in plasma at different times after the administration of the compound of Example H01, the compound of Example H04, the compound of Example H05, the compound of Example H07, the compound of Example H16, the compound of Example H17, the compound of Example H18, the compound of Example H21, and the compound of Example H24. The pharmacokinetic behavior of the compounds of the present invention in rats was studied, and its pharmacokinetic characteristics were evaluated.
# A certain amount of the compounds were weighed, and dissolved in ethanol/castor oil/water=10/10/80 to form a uniform solution.
# The above compounds were administered intravenously to rats at a dose of 1 mg/kg, and 0.2 ml of blood was collected from the orbit at 0.083, 0.25, 0.5, 1.0, 2.0, 4.0, 6.0, 8.0, 12.0, 24.0 hours before and after administration, and placed in an anticoagulant tube, the plasma was separated by centrifugation at 6,000 rpm for 10 minutes at 4° C., and stored at −80° C.
# 50 μL of plasma was taken at different times, 150 μL of acetonitrile solution containing internal standard tolbutamide (200 ng/mL) was added, the system was mixed and shaked for 5 minutes, 12000 rpm, centrifuged for 5 minutes, 100 μL of supernatant was removed, and then mixed with 200 μL of water, then the sample was loaded for analysis. The internal standard tolbutamide solid (Aladdin, T129578) powder was dissolved in DMSO to prepare into a 1 mg/mL stock solution. The stock solution was diluted with 100% acetonitrile to obtain a solution of 200 ng/mL as a protein precipitator.
# The liquid chromatography system was an LC-20AD UFLC high performance liquid chromatography system (Shimadzu, LC-20AD). The mass spectrometry system was an AB Sciex API4000 triple quadrupole mass spectrometer equipped with an electrospray ionization source (ESI) (Applied Biosystems, Canada). The software used to control the liquid-mass coanalyzer and quantitative analysis was Analyst 1.6 (Applied Biosystems, Canada), and the pharmacokinetic parameters were analyzed using WinNonlin (version 5.2, Pharsight, Mountain View, Calif.) non-compartment model.
# Liquid chromatographic separation was performed using AQ-C18 column (50×2.1 mm, internal diameter of […]). The column temperature was maintained at room temperature.
# The compound to be tested was dissolved in DMSO to prepare a stock solution with a concentration of 1 mg/mL, and diluted with 70% acetonitrile to obtain a series of standard working solutions with concentrations of 30, 10, 3, 1, 0.3, 0.1, 0.03, and 0.01. μg/mL, and a series of standard quality control solutions (24, 8 and 0.03 μg/mL). 5 μL of standard solution and 45 μL of blank plasma matrix were mixed uniformity to obtain standard solutions (3000, 1000, 300, 100, 30, 10, 3, and 1 ng/mL) and quality control standards (plasma samples: 2400, 800, 80, and 3 ng/mL) at each concentration point of the standard curve.
# μ opioid receptor (MOR) = molecular target: T3, μ opioid receptor (MOR) (Homo sapiens, UniProt P35372); assay: cell-based; conditions: HEK293 stably expressing μ opioid receptor, FLIPR calcium
# T3 construct: host or cells: HEK293
# T3 sequence (P35372 whole entry, species assumed): as the sequence (P35372 whole entry) above
# Method: The purpose of the experiment was to test the agonistic effects of the compounds of the present invention on μ opioid receptor (MOR), κ opioid receptor (KOR) and δ opioid receptor (DOR), and to evaluate in vitro activity of the compounds according to the half-maximal effect concentration (EC50).
# This test was performed using HEK293 cell lines (the stably expressed cell lines were provided by WuXi AppTec) which stably expressed μ opioid receptor, δ opioid receptor or κ opioid receptor respectively. […] The cells were centrifuged at 1000 rpm for 5 minutes at room temperature to precipitate. The supernatant was sucked out, be careful not to suck out cells. The precipitate was flicked into the loose cells and resuspend in 45 ml DMEM medium. The Vi-CELL XR automatic cell viability detector (BECKMAN COULTER) was used to count the cells, and the cell concentration was adjusted to 10×10^5 cells/ml based on the counting results.
# Preparation of probenecid mother solution: 1 ml of FLIPR test solution was added to 77 mg probenecid to prepare a 250 mM solution. The solution was freshly prepared just before use.
# The solution was freshly prepared just before use.
# The cell plate prepared above was removed from the incubator and 20 ul 2× Fluo-4 Direct™ buffer was added thereto. The final volume in the cell plate was […]. The plate was incubated at 37° C., under 5% CO2 for 50 minutes, and incubated at room temperature for 10 minutes, then was placed into the FLIPR instrument (MD), and the compound plate and pipette box was placed into. The protocol was run on the […] platform, 10 μl of positive drug or the test compound was transfered to the cell plate from the compound plate, and the fluorescent signal was read.
# The signal value generated by each well was calculated, and the calculation formula was that: the activity %=(signal value of the test compound−signal value of the solvent)/(signal value of the positive drug−signal value of the solvent).
# SD rats = assay: Respiratory depression in rats, arterial blood gas PCO2; format: in vivo; conditions: for PCO2, 5 min before administration: arterial blood; for PCO2, 5 min after administration / PCO2, 30 min after administration / PCO2, 60 min after administration / PCO2, 120 min after administration: intravenous single dose 0.3 mg/kg (morphine 24 mg/kg)
# Excerpt: (§1) 8-week-old male SD rats weighing 200 g-300 g were used as experimental animals to determine the effect of the compound of Example H05, the compound of Example H08, the compound of Example H10, the compound of Example H16, the compound of Example H17, the compound of Example H18, the compound of Example H21, and the compound of Example H24 on the partial pressure of blood in rats after intravenous administration. The effects of the compounds of the invention on respiratory depression were investigated.
# After the rats were acclimatized to the experimental environment for 3 days, each animal was anesthetized with sodium pentobarbital (50-60 mg/kg, ip), and then the right common carotid artery was isolated and the unilateral carotid artery tube-bury surgery was performed (PE60, ID*OD*length as 0.76 mm*1.22 mm*20 cm, buried into the artery 1 cm deep, and the tube was filled with heparin sodium tube sealing solution).
# [4] = system: rat surgical incision injury model; assay: Rat surgical incision injury model, von Frey paw withdrawal threshold; format: in vivo, SD rats; conditions: rats, intravenous 0.3 mg/kg
# Excerpt: as §1, with “H02,” for “H05,”, “H04,” for “H08,”, “H21” for “H21,”, “surgical pain” for “the partial pressure of blood”, “analgesic effect” for “effects”, “was discussed.” for “of the invention on respiratory depression were investigated.”
# A certain amount of the compounds or TRV130 (MCE, 15150) was weighed, and dissolved in ethanol/castor oil/water=10/10/80 as a clear and transparent solution.
# Three days after the rats were acclimatized to the experimental environment, the preoperative base value was determined, and followed by the surgical pain operation described below, about 24 hours after the surgery, the basic value was measured before administration on all animals, and mechanically hypersensitive animals (the paw withdrawal threshold (PWT) was less than 5 g) was randomly assigned to each administration group according to PWT. The pain threshold was determined 30 minutes and 60 minutes after intravenous administration of the positive drug TRV130 or each compound of the present invention (at a dose of 0.3 mg/kg).
# The surgical procedure was performed aseptically, and the surgical instruments (scissors, tweezers, scalpels, surgical cotton and sutures) were sterilized before surgery. The animals were anesthetized with sodium pentobarbital (50 mg/kg, injected intraperitoneally), and the toes of the animals were squeezed to confirm that the animals were completely anesthetized before surgery. From the position of 0.5 cm away from the heel, an incision about 1 cm was made in the longitudinal direction of the toe. After cutting the skin, the musculus flexor digitorum brevis was raised and a blunt injury was caused longitudinally. After pressing to stop bleeding, the wound was sutured. When the animal was completely awake (free to move), the animal was put back into the cage (the reference of the construction of surgical pain model: Timothy J. Brennan, Erik P. Vandermeulen, G. F. Gebhart. Characterization of a rat model of incisional pain. Pain, 64(1996):493-501).
# An up-down method was used for the determination of pain sensitivity. The mechanical pain results were expressed as animal paw withdrawal response threshold (PWT). The rat was placed separately in a plexiglass box with a mesh at the bottom of the box to ensure that the rat's feet could be tested. The rat was acclimatized for 15 minutes before the test, and after the acclimatization, the test fiber (von frey fiber, West coast) was used to test in the middle part of the hind foot of the rat. The test fibers included 8 test strengths: 3.61 (0.4 g), 3.84 (0.6 g), 4.08 (1 g), 4.31 (2 g), 4.56 (4 g), 4.74 (6 g), 4.93 (8 g), and 5.18 (15 g). During the test, the test fiber was pressed vertically against the skin and a force was applied to bend the fiber for 6-8 seconds, at an interval of 5 seconds between each test. During the test, the animal's rapid withdrawal was recorded as a pain response. When the test fiber left the animal's skin, the animal's withdrawal was also recorded as a pain response. Starting from 2 g, depending on whether the rats had any pain response, the test was changed into the next test intensity or the previous test intensity. A series of responses of the rats to different test intensities were recorded. […] Wherein, Xf was the logarithmic value of von Frey fiber used in the last test, and K value was the animal withdrawal reaction mode (recorded during the test), which was the value obtained after looking up the table according to the obtained sequence of “X” and “O”, δ=Mean of logarithmic difference between von Frey fibers used in the test.
smiles,measurement,setting,value
"FC(F)(F)Oc1cccc(CNCCC2(c3ccccn3)CCOC3(CCCC3)C2)c1 (stereo not drawn) [Example H01, (3-trifluoromethoxybenzyl)-[2-(9-(pyridin-2-yl)-6-oxaspiro[4.5]decan-9-yl)ethyl]amine]",EC50,[1],4.93 nM
same,Emax,[2],6.26%
same,AUC,[3],295 ± 1 ng·h/mL
same,half-life,[3],1.11 ± 0.24 h
same,Cmax,[3],202 ± 33.5 ng/mL
same,EC50,μ opioid receptor (MOR),6.71 nM
"Clc1ccsc1CNCCC1(c2ccccn2)CCOC2(CCCC2)C1 (stereo not drawn) [Example H05, ((3-chloro-thiophen-2-yl)methyl)-[2-(9-(pyridin-2-yl)-6-oxaspiro[4.5]decan-9-yl)ethyl]amine]",EC50,[1],10.2 nM
same,"PCO2, 5 min before administration",SD rats,35.65 ± 0.44 mmHg
same,"PCO2, 5 min after administration",SD rats,36.15 ± 1.93 mmHg
same,"PCO2, 30 min after administration",SD rats,33.65 ± 0.49 mmHg
same,"PCO2, 60 min after administration",SD rats,34.85 ± 0.43 mmHg
same,"PCO2, 120 min after administration",SD rats,35.7 ± 0.95 mmHg
same,Emax,[2],0%
same,AUC,[3],336 ± 14.1 ng·h/mL
same,half-life,[3],3.93 ± 0.13 h
same,Cmax,[3],261 ± 21 ng/mL
same,EC50,μ opioid receptor (MOR),7.05 nM
"Cc1ccc(CNCCC2(c3ccccn3)CCOC3(CCCC3)C2)cc1C (stereo not drawn) [Example H07, (3,4-dimethylbenzyl)-[2-(9-(pyridin-2-yl)-6-oxaspiro[4.5]decan-9-yl)ethyl]amine]",EC50,[1],3.08 nM
same,Emax,[2],1.55%
same,AUC,[3],583 ± 31.8 ng·h/mL
same,half-life,[3],1.25 ± 0.05 h
same,Cmax,[3],483 ± 33.3 ng/mL
same,EC50,μ opioid receptor (MOR),3.15 nM
"Cc1ccc(CNCCC2(c3ccccn3)CCOC3(CCCC3)C2)c(C)c1 (stereo not drawn) [Example H08, (2,4-dimethylbenzyl)-[2-(9-(pyridin-2-yl)-6-oxaspiro[4.5]decan-9-yl)ethyl]amine]",EC50,[1],4.77 nM
same,"PCO2, 5 min before administration",SD rats,33.77 ± 0.88 mmHg
same,"PCO2, 5 min after administration",SD rats,35.48 ± 1.54 mmHg
same,"PCO2, 30 min after administration",SD rats,34.03 ± 0.69 mmHg
same,"PCO2, 60 min after administration",SD rats,34.27 ± 1.4 mmHg
same,"PCO2, 120 min after administration",SD rats,34.83 ± 1.15 mmHg
same,Emax,[2],3.8%
same,EC50,μ opioid receptor (MOR),3.42 nM
"COc1ccsc1CNCC[C@@]1(c2ccccn2)CCOC2(CCCC2)C1 [TRV130, reference compound]","50% PWT, 30 min after administration",[4]; 30 min,6.05 ± 0.44 g
same,"50% PWT, 60 min after administration",[4]; 60 min,5.71 ± 0.33 g
